# Calls of active or inactive are those of the source. How the calls were made is not given here.
# Assay: inhibitors of TNFa-induced E-selectin expression, confirmation, imaging, retest plus dose response, cell count (AID 1288);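 further: 0% = stimulated vehicle wells and 100% = unstimulated vehicle wells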
# Settings: human endothelial cells, TNFa-induced E-selectin, imaging; at 2 µM; active compounds read high
row,Compound,inhibition
1,Cc1noc(C)c1S(=O)(=O)N1CCC(C(=O)N2CCN(Cc3ccc4c(c3)OCO4)CC2)CC1,7.72% (inactive)
2,O=C(O)CSC1c2ccccc2C(=O)N1Cc1ccccc1 (stereo not given),2.25% (inactive)
3,COc1cc(C2C(C#N)=C(N)Oc3cc(C)n(CCc4ccccc4)c(=O)c32)cc2c1OCO2 (stereo not given),4.3% (inactive)
4,COc1ccc(Cc2nnc(SCC(=O)NC3CCCC3)o2)cc1,40.2% (inactive)
5,CC(C)C(c1nnnn1Cc1ccc2c(c1)OCO2)N1CCN(C)CC1 (stereo not given),6.53% (inactive)
6,Cn1cccc1/C=C1\C(=O)NC(=O)N(CCC2=CCCCC2)C1=O,6.01% (inactive)
7,Cc1ccc(C(=O)n2c(=S)nc3ccccn32)cc1,22.2% (inactive)
8,CCc1ccc(N2CC(C(=O)Nc3cccnc3)CC2=O)cc1 (stereo not given),30.5% (inactive)
9,CCOC(=O)C(CC)n1nc(C)n2c(cc3sccc32)c1=O (stereo not given),16.1% (inactive)
10,O=S1(=O)CCN(CCc2c[nH]c3ccccc23)CC1,-4.95% (inactive)
11,O=S(=O)(N1CCOCC1)N1CCN(c2ccccc2F)CC1,-1.16% (inactive)
12,COc1ccc(NC(=O)c2cc(-c3ccc(OC)c(OC)c3)on2)cc1OC,9.77% (inactive)
13,Cc1ccc(N2CCN(/N=C/c3cccs3)CC2)cc1,1.13% (inactive)
14,COc1cc(C2C(C#N)=C(N)Oc3c2oc(CO)cc3=O)cc(OC)c1OC (stereo not given),10.9% (inactive)
15,COc1ccc2nc(NC(=O)CSC3=NCCS3)sc2c1,-0.86% (inactive)
16,CCn1c(SCC(=O)Nc2ccccc2)nnc1C1CCCCC1,2.46% (inactive)
17,O=C(/C=C/c1ccc2c(c1)OCO2)Nc1nc2ccccc2s1,16.2% (inactive)
18,COc1ccccc1NC(=O)c1ccc(S(=O)(=O)N2CCCC2)cc1,3.22% (inactive)
19,CCS(=O)(=O)Nc1ccc(-c2cc(-c3ccccc3)c3cc(C)ccc3n2)cc1,0.49% (inactive)
20,CN(Cc1ccccc1)C(=S)NC(=O)C1CCCCC1,8.28% (inactive)
21,O=C(CCc1ccccc1)Nc1ncc2c(n1)CCCC2=O,14.5% (inactive)
22,CN1C(=O)S/C(=C\c2ccccc2OCc2ccc(C(=O)O)cc2)C1=O,15.9% (inactive)
23,O=C(CN1CCN(Cc2ccccc2Cl)C1=O)NCc1ccco1,8.68% (inactive)
24,COc1ccccc1C(=O)NCCN1CCN(C(=O)c2ccccc2OC)CC1,9.74% (inactive)
25,O=C(C1CCCO1)N1CCN(c2c3c(nc4cc(-c5ccc(F)cc5)nn24)CCC3)CC1 (stereo not given),5.9% (inactive)

row,Compound,inhibition
1,CCOC(=O)c1cc2c(ccn2C)n1CC(=O)N1CCC(Cc2ccccc2)CC1,4.26% (inactive)
2,CC(/C=C/c1ccco1)=N\NC(=O)c1cc(C)[nH]n1,12% (inactive)
3,O=S(=O)(NCC(c1ccco1)N1CCN(c2ccccc2)CC1)c1ccc(F)cc1 (stereo not given),6.17% (inactive)
4,COc1ccc(C2C(C#N)=C(SCC(=O)Nc3ccc(C)cc3)NC3=C2C(=O)CC(C)(C)C3)cc1 (stereo not given),4.4% (inactive)
5,Oc1ccccc1Nc1nc(NCC2CCCO2)c2ccccc2n1 (stereo not given),5.39% (inactive)
6,CN(C(=S)Nc1ccc(Oc2ccccc2)cc1)c1ccc(O)cc1,12.6% (inactive)
7,O=C(/C=C/Nc1cccc(C(F)(F)F)c1)c1ccc(Oc2ncccn2)cc1,18% (inactive)
8,COc1ccccc1CCNC(=O)c1cnccn1,16.6% (inactive)
9,Nc1ccc(Br)cc1-c1nc2ccccc2[nH]c1=O,-8.67% (inactive)
10,O=c1[nH]c2cc(NCCO)c([N+](=O)[O-])cc2[nH]1,15.2% (inactive)
11,COc1cc(S(=O)(=O)NC2CCCCC2C)ccc1Cl (stereo not given),9.69% (inactive)
12,Cn1c(N)c(C(=O)COC(=O)CN2C(=O)c3ccccc3C2=O)c(=O)n(C)c1=O,17.5% (inactive)
13,COc1ccccc1NC(=O)CSc1nnc2ccc(-c3cccnc3)nn12,-0.72% (inactive)
14,Cc1ccc(N2C(=O)C3C4C=CC(CNC(=S)Nc5ccc(F)cc5)(O4)C3C2=O)cc1 (stereo not given),5.92% (inactive)
15,Clc1ccc(CNc2ccc3nnc(-c4ccccc4)n3n2)cc1,0.04% (inactive)
16,NC(=O)C1CCCN(C(=S)Nc2cccc3ccccc23)C1 (stereo not given),9.37% (inactive)
17,O=C(c1ccc(COCC(F)(F)F)o1)N1CCCCCC1,5.74% (inactive)
18,CCN1C(=O)c2cccc3c(NC(=O)c4cccc(N5C(=O)CCC5=O)c4)ccc1c23,0.82% (inactive)
19,Cc1ccc(O)c(NC(=S)NC(=O)c2ccc(-c3ccc(Cl)cc3)o2)c1,20.3% (inactive)
20,Cc1cc(SCc2cc(=O)[nH]c3ccccc23)nc2ccccc12,-9.63% (inactive)
21,CCOC(=O)c1c(NC(=O)COC)sc2c1CCCC2,17.5% (inactive)
22,N#Cc1cccc(-n2c(-c3ccccc3)nnc2-c2ccccc2)c1C#N,4.7% (inactive)
23,O=C1CC(c2ccccc2)SC(N(c2ccccc2)c2ccccc2)=N1 (stereo not given),26.1% (inactive)
24,COc1ccc(-n2c(C)c3c(OC)cccc(=O)c3c2C)cc1,-2.64% (inactive)
25,O=C(Nc1nc(-c2ccncc2)cs1)c1ccc(S(=O)(=O)N2CCOCC2)cc1,1.3% (inactive)

row,Compound,inhibition
1,CCCOc1ccc(C(=O)NCC(c2cccs2)N(C)C)cc1 (stereo not given),-0.69% (inactive)
2,COC(=O)CN1C(=S)N(c2ccc(Cl)cc2)C(=O)C1CC(=O)Nc1ccc(Cl)cc1 (stereo not given),-1.33% (inactive)
3,Cc1ccc(CNC(=O)CCc2nc3ccccc3c(=O)[nH]2)cc1,15.6% (inactive)
4,COc1ccc(S(=O)(=O)NCc2csc(-c3cccnc3)n2)cc1,4.07% (inactive)
5,C1=C(c2ccc(-c3ccccc3)cc2)Nc2ncnn2C1c1ccco1 (stereo not given),26.2% (inactive)
6,COc1ccc(C(=O)NCC(C)C)c(OC)c1,24.1% (inactive)
7,O=c1ncn(-c2ccccc2F)c2ncccc12,1.5% (inactive)
8,COc1ccc(-c2ccc(C(=S)N3CCN(C(C)=O)CC3)o2)cc1,3.01% (inactive)
9,O=S(=O)(/N=C(/Nc1ccccc1)c1ccccc1)c1cccs1,5.98% (inactive)
10,O=C(CO/N=C/c1ccccc1OC(F)F)NCc1cccs1,1.25% (inactive)
11,CCCc1c(O)c2ccccc2[nH]c1=O,0.12% (inactive)
12,COc1ccc(C(CC(=O)NCc2ccccc2)Sc2n[nH]c(-c3ccccc3)n2)cc1 (stereo not given),29.1% (inactive)
13,O=C(/C=C\Nc1cccc(F)c1)c1cccs1,-1.7% (inactive)
14,CCn1cc(C(=O)NCc2ccco2)c(=O)c2cc(S(=O)(=O)N3CCc4ccccc4C3)ccc21,41.9% (inactive)
15,c1csc(C(c2nnnn2C2CCCC2)N2CCCC3(CCCCC3)C2)c1 (stereo not given),-3.21% (inactive)
16,Cc1cccc(N2CCN(c3cccc(C)c3)C2c2cccnc2)c1,5.98% (inactive)
17,c1ccc(Nc2nc3ccccc3n3cnnc23)cc1,6.89% (inactive)
18,COc1ccc(C(=O)C(CN2CCOCC2)c2ccccc2)cc1F (stereo not given),0.43% (inactive)
19,CCn1nnnc1-c1ccc(OC)c(S(=O)(=O)NCc2ccccc2)c1,5.72% (inactive)
20,O=C(c1c(Cl)nc2sccn12)N1CCCc2ccccc21,0.11% (inactive)
21,CCN(CC)c1ccc(NC(=O)COC(=O)/C=C/c2nc3ccccc3s2)cc1,15.5% (inactive)
22,CCOCc1nnc(NC(=O)CCc2ccccc2)s1,9.8% (inactive)
23,O=C(Nc1ccc(-c2nc3cccnc3s2)cc1)c1ccc(Br)o1,5.96% (inactive)
24,O=C(Nc1ccccc1C(=O)N/N=C/c1ccco1)c1ccc(F)cc1,10.5% (inactive)
25,CCOC(=O)N1CCN(C(=O)c2ccc(Oc3ccc([N+](=O)[O-])cc3)cc2)CC1,18.9% (inactive)

row,Compound,inhibition
1,CCOC(=O)Cc1nnc(NC(=O)CSc2ccc(Cl)cc2)s1,2.82% (inactive)
2,Cn1cc(Cl)c(C(=O)NNC(=S)NCc2ccco2)n1,7.71% (inactive)
3,Cc1ccc(SCCC(=O)Nc2ccccc2C(=O)NC(C)C)cc1,12.3% (inactive)
4,CCC(C(=O)N1CCc2cc(OC)c(OC)cc2C1)c1ccccc1 (stereo not given),-0.78% (inactive)
5,CC(Sc1nnc2c(n1)C1CCC2(C)C1(C)C)C(=O)Nc1ccccc1 (stereo not given),9.66% (inactive)
6,O=C(CN1CCN(c2ccccc2F)CC1)c1c[nH]c2ccccc12,-2.26% (inactive)
7,O=C(CSc1nnc(-c2cc(-c3cccs3)nc3ccccc23)o1)NC1CCCCC1,5.57% (inactive)
8,COc1ccc(CNC(=O)c2ccc(NC(=O)CC3SC(N4CCCCC4)=NC3=O)cc2)cc1 (stereo not given),4.81% (inactive)
9,Cc1c(NC(=O)CN2CC(C)OC(C)C2)c(=O)n(-c2ccccc2)n1C (stereo not given),35.8% (inactive)
10,Cc1cc(=O)n2nc(-c3ccccc3)sc2c1C#N,1.2% (inactive)
11,O=c1cc(CO)oc(C(Nc2ccccn2)c2ccccc2F)c1O (stereo not given),13.7% (inactive)
12,CCN(CC)S(=O)(=O)c1ccc(NC(=O)CSc2nnc(-c3ccc(F)cc3)o2)cc1,1.25% (inactive)
13,CCOC(=O)c1cccc(NC(=O)CSc2nnc(-c3ccoc3C)n2CCOC)c1,-4.74% (inactive)
14,Cc1cc(C(=O)Nc2nc3c(s2)CCCC3)no1,6.49% (inactive)
15,Cc1ccc(C2(O)CN(c3ccccc3C)C3=[N+]2CCS3)cc1 (stereo not given),2.57% (inactive)
16,CC(Sc1nnc(-c2cccs2)n1Cc1ccccc1)C(=O)NCc1ccc2c(c1)OCO2 (stereo not given),1.65% (inactive)
17,Cc1nc(SCC(N)=O)c([N+](=O)[O-])[nH]1,9.44% (inactive)
18,CCn1c(SCC(=O)Nc2ccccc2OC)nnc1-c1cnccn1,6.59% (inactive)
19,COc1ccc(C(=O)OCCNC(=O)c2c(Cl)nc3ccccn23)cc1,3.04% (inactive)
20,Nc1cccc(-n2nncc2-c2ccc(Cl)cc2)c1,18.2% (inactive)
21,C/C(=N\NC(=O)c1cccc(C)c1)c1ccc(N2CCOCC2)cc1,4.53% (inactive)
22,CC(=O)N[C@@H](Cc1c[nH]c2ccccc12)C(=O)OCC(=O)Nc1ccc(S(=O)(=O)N(C)C)cc1,7.84% (inactive)
23,Cc1ccc(C(=O)Nc2ccc(O)cc2C(=O)O)cc1,3% (inactive)
24,Cc1ccc(CNCC(O)(c2ccccc2)c2ccc(Cl)cc2)cc1 (stereo not given),5.94% (inactive)
25,CCOc1ccc(C)cc1-n1nc2ccccc2n1,34.6% (inactive)

# From PubChem BioAssay AID1288 (Columbia University Molecular Screening Center, 2008)
